This note sets out measurements from PubChem BioAssay (NCI).

Test systems include LXFL 529 NSCLC; XF 498 CNS; SK-MEL-5 melanoma; A549 NSCLC; M19-MEL melanoma; DMS 273 small cell lung; HOP-18 NSCLC; DLD-1 colon; RXF-631 renal; M14 melanoma; 786-0 renal; HCC-2998 colon; DMS 114 small cell lung; KM20L2 colon; SNB-78 CNS; DU-145 prostate; MDA-N.
Test in all cases: inhibition of tumour cell growth, NCI panel, 48 h

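48-hour exposure; five concentrations; linearly interpolated endpoints. The concentration for 50% growth inhibition is given as GI50. TGI marks complete inhibition of growth.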 A value given as a limit tells only on which side of the number the result lay.

On to `Cc1cccc2[s+]snc12`, for which the TGI in the assay on LXFL 529 NSCLC is more than 92.5 µM; with XF 498 CNS it was more than 100 µM; in the assay with SK-MEL-5 melanoma it was more than 100 µM; in the assay with A549 NSCLC it was more than 100 µM; in the assay with M19-MEL melanoma, more than 100 µM; in the assay on DMS 273 small cell lung, more than 100 µM. Further, the TGI in the assay with HOP-18 NSCLC was more than 100 µM; in the assay on DLD-1 colon, 74.9 µM; in the assay on RXF-631 renal, 43.4 µM; in the assay with M14 melanoma, more than 100 µM; in the assay on 786-0 renal, more than 100 µM; with HCC-2998 colon, more than 100 µM. In addition, the TGI in the assay with DMS 114 small cell lung, in the assay on KM20L2 colon and in the assay with SNB-78 CNS was more than 100 µM each time.
For `CCOC(=O)/C(C#N)=C1\c2c([nH]c(=S)[nH]c2=O)Oc2ccc3ccccc3c21`, the TGI was 41.4 µM with SK-MEL-5 melanoma; more than 100 µM in the assay on A549 NSCLC; more than 100 µM in the assay on M14 melanoma; more than 100 µM in the assay with 786-0 renal; more than 100 µM in the assay with HCC-2998 colon; more than 100 µM in the assay with DU-145 prostate. The TGI in the assay with MDA-N is more than 100 µM.
For the compound `NC(=O)C(c1ccccc1)N1OC2C(=O)N(c3cccc4ccccc34)C(=O)C2C1c1c2ccccc2c(Cl)c2ccccc12` (stereo not given), the TGI was 11.2 µM in the assay with SK-MEL-5 melanoma; more than 50 µM in the assay with A549 NSCLC; 15.8 µM in the assay with M14 melanoma; 21.4 µM with 786-0 renal; 46.6 µM in the assay on DU-145 prostate; 7.88 µM in the assay on MDA-N.
As to `CCC(=O)NC(Nc1ccc(O)cc1)(C(F)(F)F)C(F)(F)F`, the TGI in the assay on M14 melanoma was more than 100 µM; in the assay on HCC-2998 colon it was more than 100 µM; in the assay on DU-145 prostate, more than 100 µM; in the assay with MDA-N it was 35.3 µM.
As for `C/C(=N/O)c1cccc(Nc2nc3ccc(Cl)cc3c3[nH]c4ccccc4c23)c1`, the TGI stood at 2.56 µM in the assay on SK-MEL-5 melanoma; 5.13 µM with A549 NSCLC; 3.54 µM with M14 melanoma; 5.22 µM with 786-0 renal; 4.41 µM in the assay with DU-145 prostate; 4.05 µM with MDA-N.
Take `NNc1nc2ccccc2s1`: the TGI in the assay on SK-MEL-5 melanoma, in the assay with A549 NSCLC, in the assay on M14 melanoma, in the assay with 786-0 renal, in the assay with HCC-2998 colon and with DU-145 prostate was more than 100 µM in each case. This compound had a TGI with MDA-N of more than 100 µM.
Regarding `CCC1=CC2Cc3nc4cc(Cl)ccc4c(N)c3C(C1)C2` (stereo not given), the TGI with SK-MEL-5 melanoma was determined as 4.05 µM; with A549 NSCLC, 30.8 µM; in the assay with M14 melanoma it was 3.16 µM; in the assay with 786-0 renal, 11.9 µM; with HCC-2998 colon, 3.69 µM; in the assay with DU-145 prostate, 28.9 µM. Besides, in the assay on MDA-N, the TGI was 18 µM.
Turning to `NC(N)=N/N=C/c1c(-c2ccc([N+](=O)[O-])cc2)nc2n1CCS2`, the TGI with SK-MEL-5 melanoma worked out at 32 µM; with A549 NSCLC, 36.2 µM; in the assay on M14 melanoma, 30.2 µM; in the assay with 786-0 renal, 20.9 µM; with HCC-2998 colon, 19.7 µM; in the assay with DU-145 prostate, 28.1 µM. In the assay on MDA-N, this compound had a TGI of 26.5 µM.
For the compound `O=[N+]([O-])c1ccc(Nc2nc3ccccc3s2)cc1`, the TGI with SK-MEL-5 melanoma was 56.7 µM; with A549 NSCLC, more than 100 µM; with M14 melanoma, more than 100 µM; in the assay with HCC-2998 colon, 84 µM; with DU-145 prostate, more than 100 µM.
As for `CC1=CC(=O)C(=O)C2=C1OC1(C2)C(C)CCC2C3(C)CCC(O)C(C)(C)C3CCC21C` (stereo not given), the TGI in the assay with LXFL 529 NSCLC is 33.6 µM; in the assay on XF 498 CNS, 34 µM; with SK-MEL-5 melanoma, 33.4 µM; in the assay with A549 NSCLC, more than 100 µM; in the assay with M19-MEL melanoma, 34.4 µM; in the assay with DMS 273 small cell lung it was 60.9 µM. In addition, the TGI was 41.8 µM in the assay on DLD-1 colon; 37.2 µM in the assay with M14 melanoma; 33.3 µM in the assay on 786-0 renal; 34 µM with HCC-2998 colon; 33.6 µM in the assay on DMS 114 small cell lung; 37.4 µM in the assay with KM20L2 colon. This compound showed a TGI in the assay on SNB-78 CNS of 64.6 µM.
Take `N=C(N)c1csc([C@@H]2O[C@H](CO)[C@@H](O)[C@H]2O)n1`: the TGI in the assay on LXFL 529 NSCLC, with XF 498 CNS, with SK-MEL-5 melanoma, in the assay on A549 NSCLC, with M19-MEL melanoma and in the assay with DMS 273 small cell lung was more than 100 µM in each case. In addition, the TGI with HOP-18 NSCLC, with DLD-1 colon, with RXF-631 renal, with M14 melanoma, with HCC-2998 colon and with SNB-78 CNS was more than 100 µM in each case.
Turning to `COc1ccc2c(c1)N=C1CSC(c3cccc(Br)c3)N1C2` (stereo not given), the TGI in the assay on SK-MEL-5 melanoma was 27.6 µM; in the assay with A549 NSCLC, 48.1 µM; in the assay with M14 melanoma, 36.2 µM; with 786-0 renal it was 35.1 µM; with HCC-2998 colon, 19.7 µM; with MDA-N it was 34.5 µM.
Consider `CC12CCC(C(=O)N3CC=CCC3)(OC1=O)C2(C)C` (stereo not given), for which the TGI with XF 498 CNS, with SK-MEL-5 melanoma, with A549 NSCLC, with M19-MEL melanoma, with DMS 273 small cell lung and in the assay with HOP-18 NSCLC was more than 100 µM each time. The TGI with DLD-1 colon, in the assay with HCC-2998 colon, in the assay on DMS 114 small cell lung, in the assay on KM20L2 colon and in the assay on SNB-78 CNS was more than 100 µM throughout.
For `c1cn2cc(-c3ccc4ncn(C5CCCCC5)c4c3)nc(-c3ccc4c(c3)ncn4C3CCCCC3)c2n1`, the GI50 is 1.49 µM with SK-MEL-5 melanoma, 1.94 µM with A549 NSCLC and 1.81 µM with HCC-2998 colon. Also, the results for the TGI with SK-MEL-5 melanoma, in the assay on A549 NSCLC and in the assay on HCC-2998 colon were 2.83 µM, 3.54 µM and 3.45 µM, respectively.
As for `O=C1C(=O)c2ccccc2C(O)=C1CN(CCCl)CCCl`, the TGI in the assay with LXFL 529 NSCLC, in the assay on XF 498 CNS, in the assay on SK-MEL-5 melanoma, in the assay on A549 NSCLC, with M19-MEL melanoma and with DLD-1 colon was more than 100 µM each time. In addition, the TGI in the assay on RXF-631 renal, in the assay with M14 melanoma, in the assay on 786-0 renal, with HCC-2998 colon, with KM20L2 colon and with SNB-78 CNS was more than 100 µM throughout.
On to `COc1cc(C2=C(C#N)C(N)OC3=C2COc2ccccc23)cc(OC)c1OC` (stereo not given), for which the TGI is more than 100 µM in the assay with SK-MEL-5 melanoma; 49.3 µM with A549 NSCLC; more than 100 µM with M14 melanoma; 56.8 µM with HCC-2998 colon; 25.8 µM in the assay on DU-145 prostate; more than 100 µM in the assay with MDA-N.
`Nc1ccc2c3c(n(CCCCl)c(=O)c2c1)-c1cc2c(cc1C3=O)OCO2`: the GI50 in the assay with SK-MEL-5 melanoma is 0.12 µM; in the assay on A549 NSCLC it was 7.75 µM; in the assay with HCC-2998 colon it was more than 100 µM. Besides, the TGI with SK-MEL-5 melanoma is 0.714 µM; in the assay with A549 NSCLC, more than 100 µM; with HCC-2998 colon, more than 100 µM.
`COC1CC(OC2CCC3(C)C(CCC45CCC(C6=CC(=O)OC6)C(C)(CCC43)C5=O)C2)OC(C)C1O` (stereo not given): the TGI is 41.9 µM in the assay with SK-MEL-5 melanoma; more than 100 µM in the assay on A549 NSCLC; more than 100 µM in the assay on M14 melanoma; 64.8 µM in the assay on 786-0 renal; 44.4 µM in the assay on HCC-2998 colon; 29.3 µM in the assay with DU-145 prostate. Besides, in the assay with MDA-N, the TGI was more than 100 µM.
`O=C(O)C1Cc2c([nH]c3ccccc23)C=N1` (stereo not given): the TGI with XF 498 CNS, in the assay on SK-MEL-5 melanoma, in the assay with A549 NSCLC, in the assay with M19-MEL melanoma, with DMS 273 small cell lung and with HOP-18 NSCLC was more than 100 µM each time. In addition, the TGI in the assay with DLD-1 colon, in the assay with HCC-2998 colon, in the assay with DMS 114 small cell lung, with KM20L2 colon and in the assay on SNB-78 CNS was more than 100 µM in each case.
For `NC(CCP(=O)(O)CCC1C=CC=CC1)C(=O)O` (stereo not given), the TGI with SK-MEL-5 melanoma, with A549 NSCLC, in the assay with M14 melanoma, with HCC-2998 colon, in the assay on DU-145 prostate and with MDA-N was more than 100 µM throughout.
